Data as given in patent US20250009766A1, “CA[…] TREATMENT OF SEIZURES AND EPILEPSY” (The Regents of the University of California, priority 2021, published 2025).
Entries after “also recorded” stand apart in the source; their conditions may differ.

Assays:
Format in all cases: in vivo
[1] = test system: male CF1 mice; test: Mouse maximal electroshock (MES) test, male CF1 mice; conditions: for Percentage protection from Tonic Hind limb Extension: Male CF1 mice
Experimental: (§1) Animals. Male NIH Swiss or CF1 mice (Charles-Rivers, 22-34g) were used in the present study. In most of the experiments, male CF1 mice were used. In the experiment exploring the strain difference between CBD and CBG efficacy in the MES test, these compounds were also tested in male NIH Swiss mice. All experiments involving animals complied with the ARRIVE guidelines of the National Centre for the Replacement, Refinement, and Reduction of Animals in Research and were performed in accordance with the National Institutes of Health Guide for the Care and Use of Laboratory Animals (NIH publication No. 8023, revised in 1978) under protocols approved by the University of California, Davis, Institutional Animal Care and Use Committee.
(§2) All the cannabinoids were prepared in ethanol: Cremophor: saline in the ratio of 2:1:17. These were administered Intraperitoneally (IP) in a dose volume of 10 ml/kg.
(§3) Mouse maximal electroshock test. Samples of CBD, both from decarboxylation of cannabidiolic acid (CBDA) and a commercial source, were tested in parallel as a comparator. Samples of CBD and CBG were prepared by decarboxylating their respective active precursors CBDA and cannabigerolic acid (CBGA; 95+% pure) by heating at 102° C. (215° F.) for 60 min. The precursor compounds were isolated from hemp. For comparison, the antiseizure activity of pure, commercial, hemp-derived CBD and chemically synthesized CBG in crystalline form was also determined in the MES test. Also investigated was whether CBDA and CBGA have antiseizure potential at the highest dose tested (150 mg/kg) in this model. Male CF1 mice were used in the current study. Sixty min after IP injection of the cannabinoids, the animals were subjected to a 0.2-s, 60-Hz, 50-mA electrical stimulus delivered with corneal electrodes (5 mm diameter stainless steel balls) wetted with 0.9% saline. Animals failing to show THLE were scored as protected. In the time-response curve experiment, CBG was administered at different times before the MES test. In most of the experiments, male CF1 mice were used. In the experiment exploring the strain difference between CBD and CBG efficacy in the MES test, these compounds were additionally tested in male NIH Swiss mice.

[2] = test system: male CF1 mice; test: Mouse pentylenetetrazol (PTZ) test
Experimental: as §1, §2
Mouse pentylenetetrazol (PTZ) test. Sixty min after IP injection of either cannabidiol (CBD) or cannabigerol (CBG) in male CF1 mice, the animals were challenged with 80 or 100 mg/kg PTZ delivered via intraperitoneal (IP) route of administration. The onset of myoclonic jerks, generalized clonus, tonus/tonic extension, and mortality was observed. The percentage of animals was further calculated that underwent these phases caused by PTZ. Failure to observe such phases or delayed onset is considered as protection.

[3] = test system: male NIH Swiss mice; test: Mouse maximal electroshock (MES) test, male NIH Swiss mice (strain difference); conditions: for Percentage protection from Tonic Hind limb Extension: Male NIH Swiss mice; for effect in MES test: male NIH Swiss mice
Experimental: as §1, §2, §3

[4] = 50 mg/kg IP, 60 min before MES, male CF1 mice
[5] = 100 mg/kg IP, 60 min before MES, male CF1 mice
[6] = 150 mg/kg IP, 60 min before MES, male CF1 mice
[7] = 200 mg/kg IP, 60 min before MES, male CF1 mice
[8] = male CF1 mice, IP, 60 min before MES
[9] = protection from THLE, male CF1 mice, IP, 60 min before MES
[10] = PTZ 80 mg/kg IP, treatment 100 mg/kg IP 1 h before
[11] = PTZ 80 mg/kg IP, treatment 150 mg/kg IP 1 h before
[12] = PTZ 100 mg/kg IP, treatment 150 mg/kg IP 1 h before
[13] = high dose PTZ test (100 mg/kg), treatment 150 mg/kg IP
[14] = dose 100, 1 h before MES (0.2-s, 60-Hz, 50-mA)
[15] = dose 150, 1 h before MES (0.2-s, 60-Hz, 50-mA)

C=C(C)[C@@H]1CCC(C)=C[C@H]1c1c(O)cc(CCCCC)cc1O [Crystalline hemp derived CBD, cannabidiol]
Percentage Protection [1, 4]: 0% | Percentage Protection ([1]; 65 mg/kg IP, 60 min before MES, male CF1 mice): 37.5% | Percentage Protection ([1]; 75 mg/kg IP, 60 min before MES, male CF1 mice): 37.5% | Percentage Protection ([1]; 85 mg/kg IP, 60 min before MES, male CF1 mice): 50% | Percentage Protection [1, 5]: 75% | Percentage Protection [1, 6]: 75% | ED50 (mg/kg, IP) ([1]; protection from THLE, male CF1 mice, IP, 60 min before MES, listed as commercial CBD): 83.7 ± 5.7 mg/kg

CCCCCc1cc(O)c2c(c1)OC(C)(CCC=C(C)C)C=C2 (stereo not drawn) [CBC oil, cannabichromene]
Percentage Protection [1, 4]: 11.1% | Percentage Protection [1, 5]: 12.5% | Percentage Protection [1, 6]: 12.5% | Percentage Protection [1, 7]: 25% | fraction of animals protected ([1]; 250 mg/kg IP, 60 min before MES, male CF1 mice): 25% | potency relative to CBD and CBG in MES test [1, 8]: less potent than CBD and CBG

CCCCCc1cc(O)c(C/C=C(\C)CCC=C(C)C)c(O)c1 [CBG obtained from CBGA, cannabigerol]
doses at which animals were protected from THLE [1, 8]: 65 to 200 mg/kg | ED50 [1, 9]: 99 ± 7.01 mg/kg

C=C(C)[C@@H]1CCC(C)=C[C@H]1c1c(O)cc(CCCCC)cc1O [CBD obtained from CBDA isolates, cannabidiol]
doses at which animals were protected from THLE [1, 8]: 25 to 150 mg/kg | ED50 (mg/kg, IP) [1, 9]: 62.7 ± 5.6 mg/kg

C=C(C)[C@@H]1CCC(C)=C[C@H]1c1c(O)cc(CCCCC)c(C(=O)O)c1O [Cannabidiolic acid (CBDA), cannabidiolic acid]
Percentage Protection [1, 6]: 0% | antiseizure activity ([1]; highest dose tested (150 mg/kg), male CF1 mice): no antiseizure activity

CCCCCc1cc(O)c(C/C=C(\C)CCC=C(C)C)c(O)c1 [cannabigerol]
Percentage Protection [1, 5]: 62.5% | Percentage Protection [1, 6]: 75% | Percentage Protection [1, 7]: 62.5%

C=C(C)[C@@H]1CCC(C)=C[C@H]1c1c(O)cc(CCCCC)cc1O [CBD, cannabidiol]
Death time (s) [2, 10]: None | Onset of generalized clonus [2, 10]: 333.9 ± 174.3 s | Onset of jerks [2, 10]: 138.1 ± 61.9 s | Onset of tonus (s) [2, 10]: None | Percentage animals having generalized clonus [2, 10]: 87.5% | Percentage animals having tonus [2, 10]: None | Percentage mortality [2, 10]: 0% | Percentage of animals having myoclonic jerks [2, 10]: 100% | Death time (s) [2, 11]: None | Onset of generalized clonus [2, 11]: 612.5 ± 515.5 s | Onset of jerks [2, 11]: 95.6 ± 13.3 s | Onset of tonus (s) [2, 11]: None | Percentage animals having generalized clonus [2, 11]: 25% | Percentage animals having tonus [2, 11]: None | Percentage mortality [2, 11]: 0% | Percentage of animals having myoclonic jerks [2, 11]: 100% | Death time (s) [2, 12]: None | Onset of generalized clonus [2, 12]: 329.3 ± 152.3 s | Onset of jerks [2, 12]: 63.6 ± 4.8 s | Onset of tonus [2, 12]: 1362.5 ± 888.5 s | Percentage animals having generalized clonus [2, 12]: 100% | Percentage animals having tonus [2, 12]: 25% | Percentage mortality [2, 12]: 0% | Percentage of animals having myoclonic jerks [2, 12]: 100% | effect on generalized clonus ([2]; high dose PTZ test (100 mg/kg)): no difference | latency to onset of myoclonic jerks [2, 13]: increased the latency to onset of myoclonic jerks | protection from tonus phase and mortality [2, 13]: protected animals from undergoing tonus phase and mortality | protection from generalized clonus ([2]; low dose PTZ test (80 mg/kg, IP), treatment 150 mg/kg IP): effective in protecting animals from generalized clonus | Percentage protection from Tonic Hind limb Extension [1, 14]: 100% | Percentage protection from Tonic Hind limb Extension [1, 15]: 100% | effect in MES test ([1]; male CF1 mice): protected animals from Tonic Hindlimb Extension (THLE); also recorded: effective | Percentage protection from Tonic Hind limb Extension [3, 14]: 12.5% | Percentage protection from Tonic Hind limb Extension [3, 15]: 12.5% | effect in MES test [3]: not protective

CCCCCc1cc(O)c(C/C=C(\C)CCC=C(C)C)c(O)c1C(=O)O [Cannabigerolic acid (CBGA), cannabigerolic acid]
Percentage Protection [1, 6]: 25%

CCCCCc1cc(O)c(C/C=C(\C)CCC=C(C)C)c(O)c1 [CBG, cannabigerol]
Death time (s) [2, 10]: None | Onset of generalized clonus [2, 10]: 199.1 ± 90.6 s | Onset of jerks [2, 10]: 101.1 ± 50.7 s | Onset of tonus (s) [2, 10]: None | Percentage animals having generalized clonus [2, 10]: 87.5% | Percentage animals having tonus [2, 10]: None | Percentage mortality [2, 10]: 0% | Percentage of animals having myoclonic jerks [2, 10]: 87.5% | Death time (s) [2, 11]: None | Onset of generalized clonus [2, 11]: 117.8 ± 46.8 s | Onset of jerks [2, 11]: 93 ± 26.6 s | Onset of tonus [2, 11]: 852.5 ± 170.5 s | Percentage animals having generalized clonus [2, 11]: 62.5% | Percentage animals having tonus [2, 11]: 25% | Percentage mortality [2, 11]: 0% | Percentage of animals having myoclonic jerks [2, 11]: 100% | Death time [2, 12]: 1082.6 ± 265.5 s | Onset of generalized clonus [2, 12]: 200.8 ± 105.9 s | Onset of jerks [2, 12]: 50.1 ± 3.3 s | Onset of tonus [2, 12]: 1351.3 ± 410.7 s | Percentage animals having generalized clonus [2, 12]: 100% | Percentage animals having tonus [2, 12]: 100% | Percentage mortality [2, 12]: 62.5% | Percentage of animals having myoclonic jerks [2, 12]: 100% | overall effect in PTZ seizure test ([2]; PTZ IP, male CF1 mice): had no effect | protection from mortality ([2]; high dose PTZ): protected some animals from mortality | Percentage protection from Tonic Hind limb Extension [1, 14]: 62.5% | Percentage protection from Tonic Hind limb Extension [1, 15]: 75% | effect in MES test ([1]; male CF1 mice): protected animals from Tonic Hindlimb Extension (THLE); also recorded: effective | time of maximum response (protection from THLE) after administration ([1]; single IP injection of 100 mg/kg, male CF1 mice, tested 15-240 min): 60 to 120 min | Percentage protection from Tonic Hind limb Extension [3, 14]: 12.5% | Percentage protection from Tonic Hind limb Extension [3, 15]: 12.5% | effect in MES test [3]: not protective
